Assay results taken from patent US7037901B1, “Radiosensitization by indolocarbazole derivatives” (priority 2001, dated 2006).
Like-named read-outs stand apart in the source and are kept apart here.

Legend:
[1] = tested on: TOP1 mutant DC3F/C10 cells; experiment: Radiosensitization in DC3F/C10 cells (clonogenic survival with radiation); format: cell-based, Chinese hamster; conditions: for Radiation Dose (Gy) at 10% Survival / SER / Induction of RS: DC3F/C10 cells; for Resistance of DC3F/C-10 cells to induction of RS: in comparison to the DC3F cells, Table 4; for Induction of RS: concentrations as high as 10 μg/ml (data not shown)
Method: (§1) Clonogenic Survival Assay. […] 18–24 h prior to experimental studies.
(§2) Colonies consisting of >50 cells were counted.
(§3) Irradiation of Cells. Drug-treated and control cells in medium were irradiated using a cobalt-60 source (Eldorado 8; Theratronics, Canada) at a dose rate of 105 cGy/min.
(§4) Analysis of Survival Curves. Survival curves were corrected for cytotoxicity induced by drug alone treatment. Sensitization enhancement ratios (SERs) and standard deviations for survival curves were determined at 10% cell survival. Each SER was calculated by dividing the radiation dose to induce 10% cell survival in the absence of radiosensitizer with the radiation dose to induce 10% cell survival in the presence of radiosensitizer.

[2] = tested on: Chinese Hamster lung fibroblast DC3F cells; experiment: Clonogenic survival assay, cytotoxicity in DC3F cells
Method: (§5) Clonogenic Survival Assay. For a typical clonogenic survival experiment, stock cultures of exponentially growing cells were trypsinized, rinsed, and plated (5×10^5 cells per dish for DC3F and DC3F/C-10 cells; 1×10^6 cells for MCF-7 cells) into 100-mm petri dishes and incubated at 37° C. 18–24 h prior to experimental studies.
(§6) Following various experimental protocols with drug incubation and irradiation, cells were trypsinized, rinsed, counted, and plated for […] colony formation. Depending on the anticipated survival level, 10^2 to 10^5 cells were plated per dose point. When higher cell numbers were plated, large petri dishes were used to avoid possible cell-density effect (100-mm instead of 60-mm petri dishes for cell number≧5×10^4). Depending on the treatment protocols, an equivalent amount of DMSO was added into each of the control radiation alone dishes (final DMSO concentration <0.1%).
(§7) Following seven to fourteen days of incubation, colonies were fixed with methanol/acetic acid (3:1), stained with crystal violet. Colonies consisting of >50 cells were counted. All survival points were done in triplicate, and experiments were conducted a minimum of two times. Error bars shown in the figures represent standard deviations (SD) and are shown when larger than the symbol.
(§8) The DC3F/C-10 cell line was selected from the Chinese Hamster lung fibroblast DC3F cell line in the presence of 1 μM of camptothecin (Albright, N., Radiat. Res., 112:331–340 (1987), and Chen, Y. N., J. Biol. Chem., 265:10073–10080 (1990)). […] In an attempt to determine the importance of TOP1 in mediating the cytotoxic and radiosensitizing effects by INDO derivatives, clonogenic survival assays were performed in DC3F and DC3F/C10 cells.

DC3F cells = experiment: Radiosensitization in DC3F cells (clonogenic survival with radiation); format: cell-based, Chinese hamster; conditions: for Induction of RS: concentrations as high as 10 μg/ml (data not shown)
Method: as §1, §2, §3, §4

[3] = tested on: camptothecin-resistant, TOP1 mutant DC3F/C-10 cells; conditions: for Cytotoxic effect: DC3F/C10 cells
Method: as §5, §6, §7, §8

purified human TOP1 = target: T1, purified human TOP1 (Homo sapiens, UniProt P11387); experiment: In vitro drug-stimulated TOP1 cleavage assay (pHOT1 plasmid nicking); format: biochemical; set-up: key to TOP1-mediated DNA cleavage: +++: high activity; ++: modest activity; +: low activity; conditions: for TOP1-mediated DNA cleavage: in vitro, based on FIG. 4B and 4C; for Potency in inducing TOP1-mediated DNA cleavage (nicking of pHOT1): purified human TOP1, FIG. 4, 4C
T1 construct: purchased TopoGEN, Inc. (Columbus, Ohio)
T1 sequence (P11387 1-765): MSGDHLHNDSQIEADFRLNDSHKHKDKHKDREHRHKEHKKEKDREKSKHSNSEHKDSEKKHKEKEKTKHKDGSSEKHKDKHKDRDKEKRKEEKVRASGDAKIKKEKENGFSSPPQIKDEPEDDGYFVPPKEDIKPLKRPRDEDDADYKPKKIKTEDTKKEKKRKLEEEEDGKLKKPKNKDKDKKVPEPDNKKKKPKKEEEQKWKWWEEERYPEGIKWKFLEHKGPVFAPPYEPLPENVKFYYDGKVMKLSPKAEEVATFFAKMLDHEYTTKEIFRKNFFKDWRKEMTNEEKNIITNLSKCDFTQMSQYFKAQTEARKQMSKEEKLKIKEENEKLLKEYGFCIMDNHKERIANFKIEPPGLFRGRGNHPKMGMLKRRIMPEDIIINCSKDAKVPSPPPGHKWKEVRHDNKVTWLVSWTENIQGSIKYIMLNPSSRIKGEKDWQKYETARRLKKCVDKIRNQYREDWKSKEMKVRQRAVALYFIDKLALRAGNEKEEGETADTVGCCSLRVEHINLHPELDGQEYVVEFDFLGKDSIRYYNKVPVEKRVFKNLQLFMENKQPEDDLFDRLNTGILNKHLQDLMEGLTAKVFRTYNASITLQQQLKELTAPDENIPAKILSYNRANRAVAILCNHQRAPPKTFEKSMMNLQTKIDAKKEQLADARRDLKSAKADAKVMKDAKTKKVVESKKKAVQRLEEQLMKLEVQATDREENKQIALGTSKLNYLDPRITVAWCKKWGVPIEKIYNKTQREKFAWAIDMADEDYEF
Method: In vitro drug-stimulated TOP1 cleavage assay. Drug-stimulated DNA cleavage assay using purified human TOP1 was performed according to the protocol provided by TopoGEN Inc. (Columbus, Ohio) with modifications.
Briefly, supercoiled pHOT1 plasmid DNA (0.2 μg) was incubated with 1 unit of human TOP1 in cleavage buffer (50 mM Tris, pH 7.8, 50 mM KCl, 10 mM MgCl2, 1 mM dithiothreitol, 1 mM EDTA) in the presence of varying concentrations of the drug under study. Following a 30-min incubation at 37° C., the reactions were terminated by adding SDS to 1.0% and proteinase K to 200 μg/ml. The proteinase K treatment continued at 37° C. for 1 h. The sample was then mixed with loading dye (containing sucrose and bromphenol blue) and separated in 1% agarose gel in 0.08 M Tris-phosphate, 0.008 M EDTA, pH 8.0 buffer at room temperature for 16 h.
The gel was initially stained with ethidium bromide ([…]), washed and photographed under UV light. In order to separate the “nicked” from the “relaxed” DNA population, the gel was further run for 4 h in the presence of ethidium bromide before being photographed again under UV light. The photograph was scanned and the intensity of the nicked DNA of each lane was measured using the ImageJ program obtained from the National Institutes of Health (web site: rsb.info.nih.gov/ij/). The intensity of the nicked band of each lane was plotted after the background intensity (pHOT1+TOP1 lane) was subtracted.

[4] = tested on: Chinese hamster CHO cells; experiment: Radiosensitization in CHO cells (preliminary, data not shown); format: cell-based; conditions: non-cytotoxic concentrations of 2 μg/ml and 10 μg/ml
[5] = target: camptothecin-resistant TOP1 mutant F361S (Homo sapiens, UniProt P11387, F361S); conditions: published work; cited from earlier work
Sequence of camptothecin-resistant TOP1 mutant F361S (P11387 whole entry F361S): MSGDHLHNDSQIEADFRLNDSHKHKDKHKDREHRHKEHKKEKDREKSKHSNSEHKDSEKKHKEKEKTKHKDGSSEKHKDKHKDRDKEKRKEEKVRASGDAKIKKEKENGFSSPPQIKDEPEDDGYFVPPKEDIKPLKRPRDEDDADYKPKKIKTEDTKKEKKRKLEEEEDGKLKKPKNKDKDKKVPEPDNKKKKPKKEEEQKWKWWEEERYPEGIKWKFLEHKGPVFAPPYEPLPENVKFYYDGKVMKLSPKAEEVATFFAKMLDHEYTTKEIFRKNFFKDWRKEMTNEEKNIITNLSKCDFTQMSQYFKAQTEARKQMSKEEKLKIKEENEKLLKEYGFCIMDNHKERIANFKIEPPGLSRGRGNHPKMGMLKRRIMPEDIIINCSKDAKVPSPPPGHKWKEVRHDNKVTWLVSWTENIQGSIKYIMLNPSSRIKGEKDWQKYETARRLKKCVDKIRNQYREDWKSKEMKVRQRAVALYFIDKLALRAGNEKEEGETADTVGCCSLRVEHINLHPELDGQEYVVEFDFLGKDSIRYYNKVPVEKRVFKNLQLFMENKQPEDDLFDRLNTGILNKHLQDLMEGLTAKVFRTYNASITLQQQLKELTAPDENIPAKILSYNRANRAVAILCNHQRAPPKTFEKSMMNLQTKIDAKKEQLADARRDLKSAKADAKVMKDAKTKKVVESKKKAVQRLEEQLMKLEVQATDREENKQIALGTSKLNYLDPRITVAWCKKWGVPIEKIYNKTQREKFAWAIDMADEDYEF

Row | SMILES | Radiation Dose (Gy) at 10% Survival ([1]; 5.0 μg/ml) | SER ([1]; 5.0 μg/ml) | Resistance of DC3F/C-10 cells to induction of RS [1] | Radiation Dose (Gy) at 10% Survival (DC3F cells; 5.0 μg/ml) | SER (DC3F cells; 5.0 μg/ml) | Cytotoxic effect [3] | TOP1-mediated DNA cleavage (purified human TOP1) | Potency in inducing TOP1-mediated DNA cleavage (nicking of pHOT1) (purified human TOP1) | Cytotoxic effect ([2]; DC3F cells) | RR (relative resistance) [3] | Relative resistance of DC3F/C10 cells to the cytotoxic effect [3] | Induction of RS [1] | Induction of RS (DC3F cells) | further results
1 | CO[C@H]1[C@H](O)[C@@H](O)[C@H](n2c3c(Cl)cccc3c3c4c(c5c6cccc(Cl)c6[nH]c5c32)C(=O)NC4=O)O[C@@H]1CO [F1, rebeccamycin] | 4.8 Gy | 1.1 | showed resistance to induction of RS | 4.6 Gy | 1.3 | lack of cytotoxic effect | + | less potent group | – | – | – | – | – | Radiation Dose (Gy) at 10% Survival ([1]; 25 μg/ml): 4.5 Gy; SER ([1]; 25 μg/ml): 1.2; Cytotoxic effect [2]: lack of cytotoxic effect; Radiation Dose (Gy) at 10% Survival (DC3F cells; 1.0 μg/ml): 4.9 Gy; SER (DC3F cells; 1.0 μg/ml): 1.2
2 | COC1C(CO)OC(n2c3ccccc3c3c4c(c5c6ccccc6[nH]c5c32)C(=O)OC4=O)C(O)C1O (stereo not shown) [F5] | – | – | – | – | – | lack of cytotoxic effect | + | less potent group | lack of cytotoxic effect | – | – | – | – | Induction of RS [4]: potent inducer of RS
3 | COC1C(CO)OC(n2c3ccccc3c3c4c(c5c6ccccc6[nH]c5c32)C(=O)N(O)C4=O)C(O)C1O (stereo not shown) [F7] | 5.2 Gy | 1.0 | showed resistance to induction of RS | 3.9 Gy | 1.5 | – | +++ | equivalent activity as camptothecin | – | >5.0 | more than 5 fold | – | – | Radiation Dose (Gy) at 10% Survival ([1]; 10 μg/ml): 4.9 Gy; SER ([1]; 10 μg/ml): 1.1; Radiation Dose (Gy) at 10% Survival ([1]; 20 μg/ml): 4.1 Gy; SER ([1]; 20 μg/ml): 1.3; Radiation Dose (Gy) at 10% Survival (DC3F cells; 2.5 μg/ml): 4.6 Gy; SER (DC3F cells; 2.5 μg/ml): 1.3; Radiation Dose (Gy) at 10% Survival (DC3F cells; 10 μg/ml): 3.6 Gy; SER (DC3F cells; 10 μg/ml): 1.7; Cross-resistance of mutant TOP1 [5]: cross-resistant
4 | COC1C(CO)OC(n2c3c(Cl)cccc3c3c4c(c5c6cccc(Cl)c6[nH]c5c32)C(=O)N(C)C4=O)C(O)C1O (stereo not shown) [F43] | – | – | – | – | – | lack of cytotoxic effect | + | less potent group | lack of cytotoxic effect | – | – | – | – | –
5 | COC1C(CO)OC(n2c3ccccc3c3c4c(c5c6ccccc6[nH]c5c32)C(=O)N(C)C4=O)C(O)C1O (stereo not shown) [F44] | – | – | – | – | – | – | ++ | less potent group | – | 2.5 | 2.5 fold | incapable of inducing RS | incapable of inducing RS | –
6 | COC1C(CO)OC(n2c3ccccc3c3c4c(c5c6ccccc6[nH]c5c32)C(=O)NC4=O)C(O)C1O (stereo not shown) [F71] | – | – | – | – | – | – | +++ | equivalent activity as camptothecin | – | 2.7 | 2.7 fold | incapable of inducing RS | incapable of inducing RS | –
